# From paper PMC10839021, “Pharmacological effects of monoterpene carveol on the neuromuscular system of nematodes and mammals” (Frontiers in Pharmacology, 2024)
# Molecular target: T1, A. suum ACR-16 nAChR (Asu-ACR-16, homomeric nicotinic acetylcholine receptor) (Ascaris suum, UniProt A0A0K0QSL7)
# T1 construct: homomeric receptor expressed from Asu-ACR-16 cRNA in Xenopus laevis oocytes
# Assay: two-electrode voltage-clamp in Xenopus oocytes, agonist concentration-response
# Assay type: cell-based
# T1 sequence (A0A0K0QSL7 entry or part of it): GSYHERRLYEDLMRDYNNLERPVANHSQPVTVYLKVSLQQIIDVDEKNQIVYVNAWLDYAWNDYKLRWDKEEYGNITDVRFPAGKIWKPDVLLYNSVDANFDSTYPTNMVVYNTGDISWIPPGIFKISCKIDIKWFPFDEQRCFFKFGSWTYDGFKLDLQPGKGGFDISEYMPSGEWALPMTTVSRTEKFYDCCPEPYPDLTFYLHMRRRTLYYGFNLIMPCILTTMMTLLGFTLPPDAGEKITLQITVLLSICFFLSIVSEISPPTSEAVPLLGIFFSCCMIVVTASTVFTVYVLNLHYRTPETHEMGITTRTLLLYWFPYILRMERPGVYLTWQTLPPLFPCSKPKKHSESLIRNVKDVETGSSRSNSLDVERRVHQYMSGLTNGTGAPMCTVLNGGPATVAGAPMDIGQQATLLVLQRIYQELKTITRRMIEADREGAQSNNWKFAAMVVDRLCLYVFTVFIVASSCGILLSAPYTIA
smiles,measurement,value
CC(=O)OCC[N+](C)(C)C [acetylcholine],EC50,4.9 ± 1.2 µM
